Source: patent US5399565A, “Pyrazolidinone CCK and gastrin antagonists and pharmaceutical formulations therof” (priority 1993, dated 1995)

Details: 2:1 dmf:h2o

1-[(4-Bromophenyl)aminocarbonyl]-2-carboxymethyl-4,5-diphenyl-3-pyrazolidinone and 1-[(4-bromophenyl)aminocarbonyl]-3-carboxymethoxy-4,5-diphenyl-2-pyrazoline [Example 12]
titration pKa: 4.8
